Earlier results on two compounds are cited in PMC8730323 (The Journal of organic chemistry, 2021).

pIC50: −log10 of the molar value.

One data set has as its system NCL-H460 cell line. Particulars: read-out: IC50 against human lung cancer NCL-H460 cell line.
The test system of a further data set is HL-60 cell line. Particulars: read-out: IC50 against HL-60 cell line; leukemia cells.

Turning to (−)-diocollettines A [(−)-5], the pIC50 with NCL-H460 cell line is 4.70.

As for `Cc1c(O)cc(C[C@]23C[C@H](C[C@H](C)O2)c2c4c(c(O)c(C)c2O3)CO[C@@]2(C4)C[C@@H](O)C[C@H](C)O2)c(C=O)c1O` [(+)-1, (+)-peniciketal A], in the data set on normal cells, the “Toxicity to normal cells compared with cancer cells (in words)” value is reported as “less toxic”. For the same compound, in the data set on HL-60 cell line, the negative logarithm of the IC50 (pIC50) is 5.49.
